Laboratory results from paper PMC12290673, “Antileishmanial and Antitoxoplasmal Activities of 1,4-Dihydropyridines” (ACS Omega, 2025).
Read-outs that look alike come from different tables or passages of the source.

Key:
[1] = tested on: T. gondii tachyzoites (RH strain); assay: Anti-Toxoplasma activity (infection index in Vero cells, 72 h); type: cell-based, Toxoplasma gondii; settings: mean ± SD
Experimental: Tachyzoites of the T. gondii RH strain were cultivated in Vero cells according to a published method. Complete RPMI 1640 medium (Invitrogen, USA) with 10% fetal bovine serum (FBS, Invitrogen, USA) was used to culture Vero cells in 96-well plates (5 × 10^3 cells/well in 200 μL of medium), which were incubated at 37 °C and under 5% CO2 for 24 h. This was followed by washing with phosphate-buffered saline (PBS) to remove the medium. Then, RPMI 1640 medium with 2% FBS containing T. gondii tachyzoites (RH strain) at a ratio of 5 (parasite): 1 (Vero cells) was added. After incubation at 37 °C and under 5% CO2 for 5 h, the cells were washed with PBS and overlaid with medium containing one of the tested compounds or atovaquone (ATO) at 50, 25, 12.5, 6.25, 3.13, 1.65, 0.75, or 0.37 μg mL^–1.
After incubation at 37 °C and under 5% CO2 for 72 h, the cells were stained with 1% toluidine before being examined under an inverted photomicroscope (MCD-400, Leica, Japan) to determine the T. gondii infection index (number of infected cells from 200 tested cells). The experiment was performed in triplicate.

[2] = tested on: L. major amastigotes; assay: Activity against L. major amastigotes in peritoneal macrophages (percentage of infected macrophages, Giemsa, 72 h); type: cell-based, Leishmania major; settings: intracellular amastigotes, mean ± SD, read-out: EC50 L. major ama
Experimental: (§1) L. major promastigotes were isolated and maintained according to a described method. BALB/c mice were injected at the hind footpads with 1 × 10^6 L. major metacyclic promastigotes. L. major amastigotes were collected from the infected mice. After 8 weeks had elapsed since inoculation, Schneider’s medium (Invitrogen, USA) containing antibiotics and 10% FBS was used to transform isolated amastigotes into promastigotes by incubation at 26 °C. Amastigote-derived promastigotes with less than five in vitro passages were only used for infection.
(§2) Female BALB/c mouse peritoneal macrophages (6–8 weeks old) were used to culture L. major amastigotes to assess the activity of the compounds against amastigotes. Briefly, 1 mL of 3% Brewer’s thioglycollate medium/mouse was injected into the peritoneal cavity. After 4 days, the abdominal skin was removed to expose the peritoneal wall. Then, 3 mL of RPMI 1640 medium was injected before cells were collected by aspiration, whereupon 96-well plates containing RPMI 1640 medium with 10% FBS were used to culture 5 × 10^4 cells/well, which were incubated at 37 °C under 5% CO2 for 4 h. After washing with PBS, RPMI 1640 medium containing 5 × 10^5 promastigotes were added to each well. Next, the cells were incubated at 37 °C under humidified 5% CO2 for 24 h to enhance infection and differentiation of amastigotes. Washing with PBS several times removed free promastigotes. Fresh complete RPMI 1640 medium containing one of the tested compounds or AmB at the desired final concentration (50, 25, 12.5, 6.25, 3.13, 1.65, 0.75, or 0.37 μg mL^–1) was added and incubated at 37 °C under a humidified 5% CO2 atmosphere for 72 h. DMSO (1%), only in complete RPMI media, was used as the negative control. The percentage of infected macrophages was assessed microscopically after the medium was removed, followed by washing with PBS, fixation with methanol, and staining with Giemsa. The reading was performed in triplicate. Handling of the laboratory animals followed the instructions and rules of the Committee of Research Ethics, Deanship of Scientific Research, Qassim University, permission number 20–03–20.

[3] = tested on: macrophages; assay: Cytotoxicity assay (MTT), macrophages; type: cell-based, BALB/c mouse; settings: Mus musculus, Macrophage; 72 h, mean ± SD; read-out: IC50 macro
Experimental: as §2
(§3) The MTT colorimetric assay was conducted to assess the cytotoxicity of the compounds according to a method described previously. Briefly, Vero cells or macrophages were cultured in 96-well plates (5 × 10^3 cells/well/200 μL) in RPMI 1640 medium with 10% FBS at 37 °C and under 5% CO2 for 24 h. Thereafter, PBS was used to wash the cells. Then, the compounds in RPMI complete medium with 10% FBS (at varying concentrations of 50, 25, 12.5, 6.25, 3.13, 1.65, 0.75, or 0.37 μg mL^–1) were added to 96-well plates and incubated for 72 h. Cells treated with a medium containing only DMSO (1%) were used as the negative control. After washing, MTT (1 mg mL^–1 in RPMI 1640 medium) was added to each well. The cells were incubated for 4 h, and the supernatant was removed. Next, 150 μL of DMSO was added, and a microplate absorbance spectrophotometer was applied for colorimetric analysis (λ = 540 nm). Cytotoxic effects were expressed by IC50 values (concentration that caused a 50% reduction of viable cells). The experiment was performed in triplicate.

[4] = tested on: Vero cells; assay: Cytotoxicity assay (MTT), Vero cells; type: cell-based, African Green Monkey; settings: Chlorocebus sabaeus, 72 h, mean ± SD
Experimental: as §3

[5] = tested on: L. major promastigotes; assay: Activity against L. major promastigotes (MTT, 72 h); type: cell-based, Leishmania major; settings: mean ± SD, read-out: EC50 L. major prom
Experimental: as §1
To assess the activity of the compounds against L. major promastigotes, 10^6 promastigotes/mL were cultured in 96-well plates in Schneider’s medium with 10% FBS. Then, the compounds or amphotericin B (AmB) were added to obtain the final concentrations (50, 25, 12.5, 6.25, 3.13, 1.65, 0.75, or 0.37 μg mL^–1). Negative control wells contained cultures with DMSO (1%) only. Plates were incubated at 26 °C for 72 h to evaluate the antiproliferative effect. The colorimetric MTT method was used to count viable promastigotes under a microplate absorbance spectrophotometer (xMark, Bio-Rad, USA) at 570 nm. The experiment was performed in triplicate.

[6] = tested on: L. amazonensis promastigotes; parameters: method as in Oliveira and co-workers; settings: ref Oliveira and co-workers, cited from earlier work

EC50 ([2]; Leishmania major) [µM]	EC50 ([5]; Leishmania major) [µM]	EC50 [2] [µM]	EC50 [5] [µM]	SMILES	EC50 ([1]; Toxoplasma gondii, Vero) [µM]	IC50 [3] [µM]	IC50 [4] [µM]	activity against L. amazonensis promastigotes [6]	IC50 ([6]; read-out: IC50 against L. amazonensis promastigotes) [µM]	EC50 [1] [µM]
23.3 ± 3.4	> 46.7			CCOC(=O)C1=C(C)NC2=C(C(=O)CC(C)(C)C2)C1c1ccc(OCc2ccccc2)cc1 (racemic) [Compound 4, (±)-ethyl 4-(4-(benzyloxy)phenyl)-2,7,7-trimethyl-5-oxo-1,4,5,6,7,8-hexahydroquinoline-3-carboxylate]	3.1 ± 0.4	25.1 ± 3.7	17.5 ± 3			
13.7	> 58.2	10.6 ± 2.1		CCOC(=O)C1=C(C)NC2=C(C(=O)CC(C)(C)C2)C1c1ccccc1[N+](=O)[O-] (racemic) [Compound 9, (±)-ethyl 2,7,7-trimethyl-4-(2-nitrophenyl)-5-oxo-1,4,5,6,7,8-hexahydroquinoline-3-carboxylate]	12 ± 1.9	12 ± 1.9	4.5 ± 0.7			
> 58.8	> 58.8			CCOC(=O)C1=C(C)NC2=C(C(=O)CC(C)(C)C2)C1c1ccc(C)cc1 (stereo not drawn) [Compound 2]	> 58.8	47.8 ± 7.6	52.9 ± 9.8			
> 49.7	> 49.7			CCOC(=O)C1=C(C)NC2=C(C(=O)CC(C)(C)C2)C1c1ccc(Br)cc1 (stereo not drawn) [Compound 6]	23.4 ± 3.5	23.4 ± 3.5	17.4 ± 2.9			
> 55.6	> 55.6			CCOC(=O)C1=C(C)NC2=C(C(=O)CC(C)(C)C2)C1c1cccc(Cl)c1 (stereo not drawn) [Compound 8]	> 55.6	> 55.6	> 55.6			
> 60.6	< 50		47.5 ± 6.2	CCOC(=O)C1=C(C)NC2=C(C(=O)CC(C)(C)C2)C1c1ccc2c(c1)OCO2 (stereo not drawn) [Compound 12]	30.3 ± 5.2	42.5 ± 7.2	14.9 ± 2.6	inactive		
21 ± 3.9				CCOC(=O)C1=C(C)NC2=C(C(=O)CC(C)(C)C2)C1c1c(OC)cc(OC)cc1OC (stereo not drawn) [Compound 14]	> 48.4	16.8 ± 3.1	22.8 ± 3.3	inactive		
> 51.3	< 50		40 ± 6.4	CCOC(=O)C1=C(C)NC2=C(C(=O)CC(C)(C)C2)C1c1ccco1 (stereo not drawn) [Compound 15]	> 51.3	> 51.3	> 51.3			
31.8 ± 5.4	> 49.3			CCOC(=O)C1=C(C)NC2=C(C(=O)CC(C)(C)C2)C1c1cccs1 (stereo not drawn) [Compound 16]	8.1 ± 1.3	29.9 ± 5.1	12.6 ± 2.1			
> 50.9	> 50.9			CCOC(=O)C1=C(C)NC(C)=C(C(=O)OCC)C1c1ccc(Br)cc1 [Compound 20]	> 50.9	44.8 ± 8.2	35 ± 5.9			
> 59.9	> 59.9			CCOC(=O)C1=C(C)NC(C)=C(C(=O)OCC)C1c1cccc(F)c1 [Compound 21]	> 59.9	> 59.9	> 59.9			
> 55.4	> 55.4			CCOC(=O)C1=C(C)NC(C)=C(C(=O)OCC)C1c1ccc(O)c(OC)c1 [Compound 23]	< 50	40.5 ± 6.8	22.1 ± 3.2			29.8 ± 4.8

Further lines, the compound ahead of its results:

SMILES	EC50 ([2]; Leishmania major) [µM]	EC50 ([5]; Leishmania major) [µM]	EC50 [2] [µM]	EC50 [5] [µM]	EC50 ([1]; Toxoplasma gondii, Vero) [µM]	IC50 [3] [µM]	IC50 [4] [µM]	activity against L. amazonensis promastigotes [6]	IC50 ([6]; read-out: IC50 against L. amazonensis promastigotes) [µM]	EC50 [1] [µM]
C[C@@H]1[C@H](O)[C@@H](C)/C=C/C=C/C=C/C=C/C=C/C=C/C=C/[C@H](O[C@@H]2O[C@H](C)[C@@H](O)[C@H](N)[C@@H]2O)C[C@@H]2O[C@](O)(C[C@@H](O)C[C@@H](O)[C@H](O)CC[C@@H](O)C[C@@H](O)CC(=O)O[C@H]1C)C[C@H](O)[C@H]2C(=O)O [AmB, amphotericin B, reference compound]							10.3 ± 1.2			
CCOC(=O)C1=C(C)NC2=C(C(=O)CC(C)(C)C2)C1c1ccccc1 (stereo not drawn) [Compound 1]	> 61.3	> 61.3			> 61.3	> 61.3	> 61.3			
CCOC(=O)C1=C(C)NC2=C(C(=O)CC(C)(C)C2)C1c1ccc(OC)cc1 (stereo not drawn) [Compound 3]	> 56.3	> 56.3			> 56.3	38.7 ± 6.8	49.8 ± 8.9			
CCOC(=O)C1=C(C)NC2=C(C(=O)CC(C)(C)C2)C1c1ccc(N(C)C)cc1 (stereo not drawn) [Compound 5]	> 54.4	> 54.4			29.5 ± 4.1	49.9 ± 7.4	49.4 ± 8.8			
CCOC(=O)C1=C(C)NC2=C(C(=O)CC(C)(C)C2)C1c1cccc([N+](=O)[O-])c1 (stereo not drawn) [Compound 10]	26.3 ± 3.7	> 54.1			16.4 ± 2.5	24.5 ± 3.6	10.7 ± 2.1			
CCOC(=O)C1=C(C)NC2=C(C(=O)CC(C)(C)C2)C1c1ccc(O)c(OC)c1 (stereo not drawn) [Compound 11]	> 54	> 54			26.5 ± 3.6	48 ± 8.1	45.1 ± 7.9			
CCOC(=O)C1=C(C)NC2=C(C(=O)CC(C)(C)C2)C1c1cc(OC)c(OC)c(OC)c1 (stereo not drawn) [Compound 13]	> 48.4	> 48.4			> 48.4	> 48.4	> 48.4		24.6	
CCOC(=O)C1=C(C)NC(C)=C(C(=O)OCC)C1c1ccccc1 [Compound 17]	> 63.1	> 63.1			< 50	> 63.1	60.1 ± 10.6			49.8 ± 6.5
CCOC(=O)C1=C(C)NC(C)=C(C(=O)OCC)C1c1ccc(OC)cc1 [Compound 18]	> 57.9	> 57.9			> 57.9	> 57.9	45.4 ± 7.8			
CCOC(=O)C1=C(C)NC(C)=C(C(=O)OCC)C1c1ccc(OCc2ccccc2)cc1 [Compound 19]	> 47.8	> 47.8			> 47.8	43.4 ± 7.5	33.5 ± 6.2			
CCOC(=O)C1=C(C)NC(C)=C(C(=O)OCC)C1c1cccc([N+](=O)[O-])c1 [Compound 22]	> 55.6	< 50		46.5 ± 7.7		46.5 ± 7.4	29.9 ± 4.4	inactive		
CCOC(=O)C1=C(C)NC(C)=C(C(=O)OCC)C1c1cc(OC)c(OC)c(OC)c1 [Compound 24]	> 49.6	< 50		42.7 ± 8	> 49.6	34.1 ± 5.5	14.8 ± 2.6	inactive		
